Data taken from patent publication US20080058213A1, “Benzoxazole Compounds” (priority 2004, published 2008).

Columns and labels:
Assay type in all cases: in vivo
[1] = system: Japanese bulrush (Scirpus juncoides); test: Weed control test for paddy field (Test Example 1): Japanese bulrush; settings: paddy pots, treated at 1.0 leaf stage of barnyard grass, examined after 3 weeks
From the text: (§1) Paddy field soil was filled in 1/10,000 are pots, kneaded with adequate amounts of water and chemical fertilizer, seeded with barnyard grass (Echinochloa crusgalli), Monochoria (Monochoria vaginalis), Japanese bulrush (Scirpus juncoides) and flat sedge (Cyperus serotinus), and further transplanted with 2.0 leaf stage of rice plant. The pots were maintained under the water-filled condition to a depth of 3 cm.
(§2) Wettable powders containing the compounds (1) as identified in Table 1, which were formulated following Production Example 2, were diluted with adequate amount of water and applied to the pots dropwise with pippet at a prescribed dose of the active ingredients per are, at 1.0 leaf stage of the barnyard grass.
(§3) After placing the pots in a glasshouse which was controlled at an average temperature of 25° C. for 3 weeks, herbicidal effect was examined.
(§4) Evaluation of the herbicidal effect is shown in the following six grades, by comparing the condition of untreated control and growth inhibition (%): • 0: 0%-less than 20% • 1: 20%-less than 40% • 2: 40%-less than 60% • 3: 60%-less than 80% • 4: 80%-less than 100% • 5: 100%.

slender amaranth = test: Foliage treatment test for upland field (Test Example 3): slender amaranth; settings: foliage treatment at 1.0-2.0 leaf stage of southern crabgrass, examined after 3 weeks
Procedure, shortened: (§5)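 Wettable powders diluted to the prescribed dose and sprayed at 15 L/are at the 1.0-2.0 leaf stage of southern crabgrass on glasshouse-grown plants (25° C average). Effect graded 0-5 after 3 weeks from growth inhibition versus untreated control (0: <20% to 5: 100%).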

[2] = system: flat sedge (Cyperus serotinus); test: Weed control test for paddy field (Test Example 1): flat sedge; settings: paddy pots, treated at 1.0 leaf stage of barnyard grass, examined after 3 weeks
From the text: as §1, §2, §3, §4

rice plant = test: Weed control test for paddy field (Test Example 1): phytotoxicity to rice plant; settings: paddy pots, treated at 1.0 leaf stage of barnyard grass, examined after 3 weeks
From the text: as §1, §2, §3
Evaluation of phytotoxicity is shown in the following six grades, as compared with the condition of untreated control: • 0: normal growth • 1: little damaged • 2: low damaged • 3: medium damaged • 4: serious damaged • 5: complete killed.

[3] = system: barnyard grass (Echinochloa crusgalli); test: Weed control test for paddy field (Test Example 1): barnyard grass; settings: paddy pots, treated at 1.0 leaf stage of barnyard grass, examined after 3 weeks
From the text: as §1, §2, §3, §4

wheat [4] = test: Soil treatment test for upland field (Test Example 2): phytotoxicity to wheat; settings: soil treatment before germination, examined after 3 weeks
[5] = system: southern crabgrass (Digitaria ciliaris); test: Soil treatment test for upland field (Test Example 2): southern crabgrass; settings: soil treatment before germination, examined after 3 weeks
Procedure, shortened: (§6)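 Pots of upland soil were seeded and covered, then wettable-powder formulations at the prescribed active-ingredient dose were sprayed onto the soil surface before weed germination, in 15 liters water per are. After 3 weeks in a glasshouse at about 25° C., growth inhibition versus untreated control was scored 0 (<20%) to 5 (100%).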

velvetleaf = test: Foliage treatment test for upland field (Test Example 3): velvetleaf; settings: foliage treatment at 1.0-2.0 leaf stage of southern crabgrass, examined after 3 weeks
Procedure, shortened: as §5

soybean [6] = test: Soil treatment test for upland field (Test Example 2): phytotoxicity to soybean; settings: soil treatment before germination, examined after 3 weeks
wheat [7] = test: Foliage treatment test for upland field (Test Example 3): phytotoxicity to wheat; settings: foliage treatment at 1.0-2.0 leaf stage of southern crabgrass, examined after 3 weeks
Procedure, shortened: (§7)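 Crops sown in compost-mixed soil pots, kept in a glasshouse at 25° C. average. Effect scored after 3 weeks versus untreated control on a 0–5 scale (0 normal growth, 5 complete kill).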

corn [8] = test: Soil treatment test for upland field (Test Example 2): phytotoxicity to corn; settings: soil treatment before germination, examined after 3 weeks
[9] = system: slender amaranth (Amaranthus viridis); test: Soil treatment test for upland field (Test Example 2): slender amaranth; settings: soil treatment before germination, examined after 3 weeks
Procedure, shortened: as §6

soybean [10] = test: Foliage treatment test for upland field (Test Example 3): phytotoxicity to soybean; settings: foliage treatment at 1.0-2.0 leaf stage of southern crabgrass, examined after 3 weeks
Procedure, shortened: as §7

common lambsquaters = test: Foliage treatment test for upland field (Test Example 3): common lambsquaters; settings: foliage treatment at 1.0-2.0 leaf stage of southern crabgrass, examined after 3 weeks
Procedure, shortened: as §5

common purslane = test: Foliage treatment test for upland field (Test Example 3): common purslane; settings: foliage treatment at 1.0-2.0 leaf stage of southern crabgrass, examined after 3 weeks
Procedure, shortened: as §5

[11] = system: Monochoria (Monochoria vaginalis); test: Weed control test for paddy field (Test Example 1): Monochoria; settings: paddy pots, treated at 1.0 leaf stage of barnyard grass, examined after 3 weeks
From the text: as §1, §2, §3, §4

[12] = system: velvetleaf (Abutilon theophrasti); test: Soil treatment test for upland field (Test Example 2): velvetleaf; settings: soil treatment before germination, examined after 3 weeks
Procedure, shortened: as §6

[13] = system: common purslane (Portulaca oleracea); test: Soil treatment test for upland field (Test Example 2): common purslane; settings: soil treatment before germination, examined after 3 weeks
Procedure, shortened: as §6

corn [14] = test: Foliage treatment test for upland field (Test Example 3): phytotoxicity to corn; settings: foliage treatment at 1.0-2.0 leaf stage of southern crabgrass, examined after 3 weeks
Procedure, shortened: as §7

southern crabgrass = test: Foliage treatment test for upland field (Test Example 3): southern crabgrass; settings: foliage treatment at 1.0-2.0 leaf stage of southern crabgrass, examined after 3 weeks
Procedure, shortened: as §5

[15] = system: common lambsquaters (Chenopodium album); test: Soil treatment test for upland field (Test Example 2): common lambsquaters; settings: soil treatment before germination, examined after 3 weeks
Procedure, shortened: as §6

COCC(=Cc1cccc(C(F)(F)F)c1)c1nc2cc(C(F)(F)F)ccc2o1 [Compound 52]
0: Phytotoxicity Rice plant (rice plant; dose 2.5 g ai/a) | Phytotoxicity soybean (soybean [6]; dose 2.5 g ai/a)
5 (100%): Herbicidal Effect Japanese bulrush ([1]; dose 5 g ai/a) | Herbicidal Effect slender amaranth (slender amaranth; dose 2.5 g ai/a) | Herbicidal Effect slender amaranth (slender amaranth; dose 5 g ai/a) | Herbicidal Effect Barnyard grass ([3]; dose 2.5 g ai/a) | Herbicidal Effect Barnyard grass ([3]; dose 5 g ai/a) | Herbicidal Effect southern crabgrass ([5]; dose 2.5 g ai/a) | Herbicidal Effect southern crabgrass ([5]; dose 5 g ai/a) | Herbicidal Effect velvetleaf (velvetleaf; dose 2.5 g ai/a) | Herbicidal Effect velvetleaf (velvetleaf; dose 5 g ai/a) | Herbicidal Effect slender amaranth ([9]; dose 2.5 g ai/a) | Herbicidal Effect slender amaranth ([9]; dose 5 g ai/a) | Herbicidal Effect Common lambsquatters (common lambsquaters; dose 2.5 g ai/a) | Herbicidal Effect Common lambsquatters (common lambsquaters; dose 5 g ai/a) | Herbicidal Effect common purslane (common purslane; dose 2.5 g ai/a) | Herbicidal Effect common purslane (common purslane; dose 5 g ai/a) | Herbicidal Effect Monochoria vaginalis ([11]; dose 2.5 g ai/a) | Herbicidal Effect Monochoria vaginalis ([11]; dose 5 g ai/a) | Herbicidal Effect velvetleaf ([12]; dose 2.5 g ai/a) | Herbicidal Effect velvetleaf ([12]; dose 5 g ai/a) | Herbicidal Effect common purslane ([13]; dose 2.5 g ai/a) | Herbicidal Effect common purslane ([13]; dose 5 g ai/a) | Herbicidal Effect southern crabgrass (southern crabgrass; dose 2.5 g ai/a) | Herbicidal Effect southern crabgrass (southern crabgrass; dose 5 g ai/a) | Herbicidal Effect common lambsquaters ([15]; dose 2.5 g ai/a) | Herbicidal Effect common lambsquaters ([15]; dose 5 g ai/a)
2: Phytotoxicity soybean (soybean [10]; dose 5 g ai/a)
3 (60%-less than 80%): Herbicidal Effect Flat sedge ([2]; dose 2.5 g ai/a)
4 (80%-less than 100%): Herbicidal Effect Japanese bulrush ([1]; dose 2.5 g ai/a) | Herbicidal Effect Flat sedge ([2]; dose 5 g ai/a)
1: Phytotoxicity Rice plant (rice plant; dose 5 g ai/a) | Phytotoxicity wheat (wheat [4]; dose 2.5 g ai/a) | Phytotoxicity wheat (wheat [4]; dose 5 g ai/a) | Phytotoxicity soybean (soybean [6]; dose 5 g ai/a) | Phytotoxicity wheat (wheat [7]; dose 2.5 g ai/a) | Phytotoxicity wheat (wheat [7]; dose 5 g ai/a) | Phytotoxicity corn (corn [8]; dose 2.5 g ai/a) | Phytotoxicity corn (corn [8]; dose 5 g ai/a) | Phytotoxicity soybean (soybean [10]; dose 2.5 g ai/a) | Phytotoxicity corn (corn [14]; dose 2.5 g ai/a) | Phytotoxicity corn (corn [14]; dose 5 g ai/a)
